Read-outs that look alike come from different tables or passages of the source.

For one data set, the target named is T1, MOR (μ opioid receptor) (Homo sapiens, UniProt P35372).
T1 construct: expressed in transfected cells; host or cells: HEK293
Briefly: MOR radioligand binding ([3H]-DAMGO, HEK293 cell homogenates). The conditions noted are these: Percent inhibition at 10,000 nM; [3H]-DAMGO. The protocol:
(§1) Radioligand binding assays. Detailed protocols for the primary and secondary radioligand binding assays can be found in the National Institute of Mental Health's Psychoactive Drug Screening Program (NIMH PDSP) Assay Protocol Book (Roth, 2018). Briefly, primary and secondary radioligand binding assays are carried out in a final of volume of 125 μL per well in appropriate binding buffer. […] Total binding and nonspecific binding are determined in the absence and presence of 10 μM of appropriate reference compound (Naltrindole DOR, Salvinorin A KOR and DAMGO MOR). In brief, plates are usually incubated at room temperature and in the dark for 90 min. Reactions are stopped by vacuum filtration onto 0.3% polyethyleneimine (PEI) soaked 96-well filter mats using a 96-well Filtermate harvester, followed by three washes with cold PBS buffer. Scintillation cocktail is then melted onto the microwave-dried filters on a hot plate and radioactivity counted in a Microbeta counter. The data (n=6) were analyzed by nonlinear regression.
(§2) Ligand affinities were determined for KOR (κ opioid receptor), DOR (δ opioid receptor), and MOR (μ opioid receptor) using radioligand binding assays at a screening concentration of 10,000 nM. For these assays, cell homogenates from HEK293 cells that overexpressed KOR, MOR, and DOR were used in combination with [^3H]-U69593, [^3H]-DAMGO, and [^3H]-DADLE, respectively Compounds that exceeded more than 50% radioligand displacement were investigated further in concentration-dependent experiments to determine Ki values. Gamma aminobutyric acid type A receptor (GABAAR) binding was determined with rat brain homogenate and ^3H-flunitrazepam. Flunitrazepam binds GABAAR subtypes that consists of two α and two β subunits and one γ or δ subunit. Strong affinities to α1-3,5,6β1-3γ1-y/δ GABAARS have been reported for flunitrazepam. The […] GABAAR subtype expression in the brain includes 43% α1β2γ2, 15% α2β3γ2+8% α2βγ1, 10% α3β3γ2, 6% α4βγ/δ, 4% α5β3γ2, and 4% α6β2γ2/δ. Therefore, compounds with high affinity toward the synaptic benzodiazepine-sensitive receptors (BZR) predominately bind α1-3β2-3γ1-2 GABAARs. Alternatively, compounds with weak BZR binding might be selective for α4-6βγ/δ GABAARs.
(§3) Psychoactive Drug Screening Program. Detailed protocols for the primary and secondary radioligand binding assays can be found in the National Institute of Mental Health's Psychoactive Drug Screening Program (NIMH PDSP) Assay Protocol Book. Briefly, primary and secondary radioligand binding assays are carried out in a final of volume of 125 μL per well in appropriate binding buffer. The radioactive ligand concentration is close to the Kd. Total binding and nonspecific binding are determined in the absence and presence of 10 μM of appropriate reference compound, respectively. In brief, plates are usually incubated at room temperature and in the dark for 90 min. Reactions are stopped by vacuum filtration onto 0.3% polyethyleneimine (PEI) soaked 96-well filter mats using a 96-well Filtermate harvester, followed by three washes with cold PBS buffer. Scintillation cocktail is then melted onto the microwave-dried filters on a hot plate and radioactivity counted in a Microbeta counter. The data (n=6) were analyzed by nonlinear regression.

The target of a further data set is T2, DOR (δ opioid receptor) (Homo sapiens, UniProt P41143).
T2 construct: expressed in transfected cells; host or cells: HEK293
T2 sequence (P41143 whole entry): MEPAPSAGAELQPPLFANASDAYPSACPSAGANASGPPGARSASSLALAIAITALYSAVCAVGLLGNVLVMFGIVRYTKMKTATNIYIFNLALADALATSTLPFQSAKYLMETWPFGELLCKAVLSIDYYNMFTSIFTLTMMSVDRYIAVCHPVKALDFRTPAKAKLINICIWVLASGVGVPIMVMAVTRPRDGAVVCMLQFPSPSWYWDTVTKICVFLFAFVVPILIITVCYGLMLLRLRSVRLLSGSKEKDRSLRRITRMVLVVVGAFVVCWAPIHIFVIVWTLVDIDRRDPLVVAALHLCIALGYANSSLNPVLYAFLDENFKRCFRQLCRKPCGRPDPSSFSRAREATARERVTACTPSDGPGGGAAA
Put plainly: DOR radioligand binding ([3H]-DADLE, HEK293 cell homogenates). Conditions: Percent inhibition at 10,000 nM; [3H]-DADLE. On the procedure: as §1, §2, §3

For data set [1], the system named is BZR (benzodiazepine site of GABAAR). Briefly: GABAAR/BZR binding, rat brain homogenate with 3H-flunitrazepam. The conditions noted are these: rat brain homogenate, 3H-flunitrazepam; for BZR %: Percent inhibition at 10,000 nM. The protocol:
as §2, §3

The next data set addresses T3, KOR (κ opioid receptor) (Homo sapiens, UniProt P41145).
T3 construct: expressed in transfected cells; host or cells: HEK293 (stably transfected)
Put plainly: KOR radioligand binding ([3H]-U69593, HEK293 cell homogenates). Conditions: for inhibition at 10 µM: Percent inhibition at 10,000 nM. The protocol:
as §1, §2, §3

The next data set deals with Mouse microglia. Put plainly: Cell viability (CellTiter-Glo), mouse microglia. Format: cell-based. Conditions: CellTiter-Glo, activated microglia. On the procedure:
Next, a library of GABAAR ligands was investigated to identify compounds that reduce the production of NO as a marker of anti-inflammatory activity. […] NO was quantified with a Greiss assay. Cell viability was determined with CellTiter-Glo.
Nitric oxide production (Griess assay) and viability assay (CellTiter-Glo). 80 μL of mouse microglia culture (1×10^6 cells/mL) was plated into sterile 384 well plates representing non-activated wells. The remaining culture was activated with 50 ng/ml LPS (Invivogen, NC9836) and 150 U/mL IFNγ (R&D Systems, 485MI100) and distributed into the 384 well plates. […] Assay plates were incubated for approximately 24 hours (unless otherwise noted) at 37° C., centrifuged, and 40 μL of supernatant transferred to a new plate for analysis using the Griess Assay (Promega, Madison, WI). Absorbance at 530 nm was measured using a TECAN Infinite M1000 plate reader. The remaining 40 μL containing cells was analyzed for toxicity by the CellTiter-Glo Assay (Promega, Madison, WI). Luminescence was read using a TECAN Infinite M1000 plate reader.
On the technique in general: Cellular ATP, detected with luciferase, serves as a proxy for viable cell number.

[2] abbreviates: concentration-dependent, [3H]-U69593, read-out: KOR (Ki).

T1 sequence (P35372 whole entry, species assumed): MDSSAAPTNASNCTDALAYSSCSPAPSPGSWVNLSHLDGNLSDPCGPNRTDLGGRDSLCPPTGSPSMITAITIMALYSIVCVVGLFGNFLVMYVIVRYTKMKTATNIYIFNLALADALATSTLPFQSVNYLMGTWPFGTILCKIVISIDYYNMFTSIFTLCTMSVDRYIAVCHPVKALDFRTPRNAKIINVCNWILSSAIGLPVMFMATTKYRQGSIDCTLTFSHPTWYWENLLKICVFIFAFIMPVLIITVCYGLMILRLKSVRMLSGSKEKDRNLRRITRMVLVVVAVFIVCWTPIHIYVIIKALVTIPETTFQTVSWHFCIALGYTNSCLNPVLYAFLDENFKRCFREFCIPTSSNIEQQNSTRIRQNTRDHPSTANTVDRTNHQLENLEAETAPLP
T3 sequence (P41145 whole entry): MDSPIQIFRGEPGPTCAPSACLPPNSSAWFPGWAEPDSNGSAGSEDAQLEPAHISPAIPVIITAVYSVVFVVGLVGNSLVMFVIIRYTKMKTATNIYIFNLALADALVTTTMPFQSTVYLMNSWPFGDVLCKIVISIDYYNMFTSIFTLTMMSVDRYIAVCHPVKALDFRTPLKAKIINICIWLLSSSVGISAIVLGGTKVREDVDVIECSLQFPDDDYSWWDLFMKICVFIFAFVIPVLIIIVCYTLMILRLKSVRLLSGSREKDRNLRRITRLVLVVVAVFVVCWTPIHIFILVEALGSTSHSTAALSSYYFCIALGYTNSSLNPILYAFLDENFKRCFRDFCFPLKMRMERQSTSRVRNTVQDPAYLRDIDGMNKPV

On to `C#Cc1ccc2c(c1)C(c1ccccc1F)=N[C@@H](C)c1c(C(=O)O)ncn1-2` [SH-053-2′P-S-CH3 Acid], for which the inhibition at 10 µM on MOR (μ opioid receptor) was determined as 0%; at DOR (δ opioid receptor), 18%; at KOR (κ opioid receptor) ([3H]-U69593), 20%. In data set [1], the BZR % turned out to be 93%. In addition, the Ki in data set [1] stood at 29 nM.

`C[C@@H]1C[C@H]2[C@@H]3CCC4=CC(=O)C=C[C@]4(C)[C@@]3(F)[C@@H](O)C[C@]2(C)[C@@]1(O)C(=O)CO` [dexamethasone, reference compound]: the “cell viability / cytotoxicity in the NO competition experiments (in words)” value in the data set with Mouse microglia is reported as “without cell toxicity”.

For the compound `C#Cc1ccc2c(c1)C(c1ccccn1)=NCc1c(-c3cnco3)ncn1-2` [KRM-III-67], the inhibition at 10 µM on MOR (μ opioid receptor) was found to be 30%; on DOR (δ opioid receptor), 3%; at KOR (κ opioid receptor) ([3H]-U69593) it was 48%. The BZR % in data set [1] is reported as 71%. The Ki in data set [1] was 144 nM.

Regarding `C#Cc1ccc2c(c1)C(c1ccccc1F)=N[C@H](C)c1c(C(=O)NCC)ncn1-2` [GL-II-74], the inhibition at 10 µM on MOR (μ opioid receptor) is 10%; at DOR (δ opioid receptor), 0%; on KOR (κ opioid receptor) ([3H]-U69593), 86%. Moreover, the BZR % in data set [1] amounted to 84%. The inhibition constant Ki in data set [1] was 68 nM; on KOR (κ opioid receptor) (setting [2]) it was 194 nM.

In the case of `C#Cc1ccc2c(c1)C(c1ccccc1F)=N[C@@H](C)c1c(C(=O)OCCC)ncn1-2` [GL-I-32], the inhibition at 10 µM came out at 9% at MOR (μ opioid receptor), 14% at DOR (δ opioid receptor) and 95% at KOR (κ opioid receptor) ([3H]-U69593). Further, the BZR % in data set [1] came to 98%. Besides, the Ki in data set [1] is 148 nM; on KOR (κ opioid receptor) (setting [2]) it was 64 nM.

Regarding `C#Cc1ccc2c(c1)C(c1ccccn1)=N[C@H](C)c1c(C(=O)NC)ncn1-2` [GL-II-31], the inhibition at 10 µM at MOR (μ opioid receptor) came out at 17%; at DOR (δ opioid receptor) it was 3%; on KOR (κ opioid receptor) ([3H]-U69593) it was 23%. Further, in data set [1], the BZR % is 72%. In addition, the Ki in data set [1] was 1700 nM.

As for `C#Cc1ccc2c(c1)C(c1ccccc1F)=N[C@H](C)c1c(C(=O)OC)ncn1-2` [MP-III-004], the figures for the inhibition at 10 µM on MOR (μ opioid receptor), at DOR (δ opioid receptor) and on KOR (κ opioid receptor) ([3H]-U69593) were 0%, 24% and 76%, respectively. Besides, in data set [1], the BZR % worked out at 78%. Moreover, the figures for the Ki (in data set [1]; at KOR (κ opioid receptor) (setting [2])) were 445 nM and 599 nM, respectively.

For `C#Cc1ccc2c(c1)C(c1ccccc1F)=N[C@@H](C)c1c(C(=O)OC(C)(C)CC)ncn1-2` [GL-I-33], the values for the inhibition at 10 µM on MOR (μ opioid receptor), on DOR (δ opioid receptor) and at KOR (κ opioid receptor) ([3H]-U69593) were 30%, 25% and 94%, respectively. In addition, in data set [1], the BZR % is given as 96%. Besides, the Ki in data set [1] amounted to 117 nM; at KOR (κ opioid receptor) (setting [2]), 34 nM.

As to `C#Cc1ccc2c(c1)C(c1ccccn1)=NCc1c(C(=O)OC)ncn1-2` [MP-III-024], the inhibition at 10 µM at MOR (μ opioid receptor) amounted to 0%; at DOR (δ opioid receptor), 24%; on KOR (κ opioid receptor) ([3H]-U69593), 43%. Also, the BZR % in data set [1] was found to be 81%. In addition, the Ki in data set [1] worked out at 277 nM.

Regarding `C#Cc1ccc2c(c1)C(c1ccccc1F)=N[C@H](C)c1c(C(=O)O)ncn1-2` [SH-053-2'F-R-CH3-Acid], the inhibition at 10 µM at MOR (μ opioid receptor) was 0%; on DOR (δ opioid receptor), 0%; on KOR (κ opioid receptor) ([3H]-U69593) it was 16%. The BZR % in data set [1] is 93%. Besides, the inhibition constant Ki in data set [1] is 37 nM.

For `Brc1ccc2c(c1)C(c1ccccn1)=NCc1c(-c3cnco3)ncn1-2` [KRM-II-97], the results for the inhibition at 10 µM at MOR (μ opioid receptor), on DOR (δ opioid receptor) and at KOR (κ opioid receptor) ([3H]-U69593) were 18%, 8% and 62%, respectively. Moreover, the BZR % in data set [1] was 93%. For the same compound, the inhibition constant (Ki) in data set [1] came out at 140 nM; at KOR (κ opioid receptor) (setting [2]) it was 1960 nM.

With `CCOC(=O)c1ncn2c1[C@H](C)N=C(c1ccccc1F)c1cc(C3CC3)ccc1-2` [GL-I-78], the inhibition at 10 µM is 32% at MOR (μ opioid receptor), 41% at DOR (δ opioid receptor) and 96% on KOR (κ opioid receptor) ([3H]-U69593). Also, the BZR % in data set [1] is 76%. Further, the results for the inhibition constant (Ki) (in data set [1]; on KOR (κ opioid receptor)) were 352 nM and 48 nM, respectively.

Turning to `Cc1ncoc1-c1ncn2c1CN=C(c1ccccc1)c1cc(Br)ccc1-2` [KRM-III-66], the inhibition at 10 µM at MOR (μ opioid receptor) came to 12%; at DOR (δ opioid receptor), 11%; at KOR (κ opioid receptor) ([3H]-U69593), 67%. For the same compound, in data set [1], the BZR % was 86%. The Ki in data set [1] turned out to be 49 nM; on KOR (κ opioid receptor) (setting [2]), 756 nM.

With `C[C@H]1N=C(c2ccccc2F)c2cc(Br)ccc2-n2cnc(C(=O)O)c21` [GL-II-93], the inhibition at 10 µM on MOR (μ opioid receptor), at DOR (δ opioid receptor) and at KOR (κ opioid receptor) ([3H]-U69593) was 0% throughout. Also, the BZR % in data set [1] stood at 73%. Also, the Ki in data set [1] was 86 nM. Besides, the “KOR affinity (in words)” value on KOR (κ opioid receptor) (radioligand binding) was “No KOR affinity was observed”.

On to `C#Cc1ccc2c(c1)C(c1ccccc1F)=N[C@@H](C)c1c(C(=O)OC)ncn1-2` [MP-III-021], for which the figures for the inhibition at 10 µM on MOR (μ opioid receptor), at DOR (δ opioid receptor) and at KOR (κ opioid receptor) ([3H]-U69593) were 0%, 22% and 93%, respectively. Also, the BZR % in data set [1] came out at 88%. Moreover, the inhibition constant (Ki) in data set [1] came out at 219 nM; on KOR (κ opioid receptor) (setting [2]), 122 nM.

For the compound `CCOC(=O)c1ncn2c1[C@@H](C)N=C(c1ccccc1F)c1cc(Br)ccc1-2` [SH-I-047], the inhibition at 10 µM on MOR (μ opioid receptor) was 16%; at DOR (δ opioid receptor), 0%; at KOR (κ opioid receptor) ([3H]-U69593) it was 82%. Moreover, in data set [1], the BZR % is given as 84%. For the same compound, the inhibition constant (Ki) came to 238 nM in data set [1] and 86 nM on KOR (κ opioid receptor).

With `CCOC(=O)c1ncn2c1[C@H](C)N=C(c1ccccc1F)c1cc(Br)ccc1-2` [SH-I-048B], the inhibition at 10 µM was determined as 0% at MOR (μ opioid receptor), 0% on DOR (δ opioid receptor) and 95% on KOR (κ opioid receptor) ([3H]-U69593). The BZR % in data set [1] is recorded as 61%. Moreover, the Ki in data set [1] came out at 96 nM; at KOR (κ opioid receptor), 63 nM.

Usually inhibition stands for the percentage by which the read-out fell short of the control. By Ki is commonly meant a dissociation constant, usually derived from enzyme kinetics or from competition with a known ligand.
